Measurements reported in ChEMBL document CHEMBL1129054, “Conformationally constrained analogues of diacylglycerol. 13. Protein kinase C ligands based on templates derived from 2,3-dideoxy-L-erythro(threo)-hexono-1,4-lactone and 2-deoxyapiolactone” (J Med Chem, 1996).

Target: Protein kinase C alpha type (Homo sapiens, UniProt P17252)
Experiment: Displacement of [3H-20] phorbol 12,13-dibutyrate(PDBU) from recombinant Protein kinase C alpha

Row | Ki | Compound
1 | 10.4 µM | CCCCCCCCCCCCCCOC(=O)C[C@]1(CCO)COC(=O)C1
2 | 18.4 µM | CCCCCCCCCCCCCCOC(=O)C[C@@]1(CCO)COC(=O)C1

Continued, compound first:

Row | Compound | Ki
3 | CCCCCCCCCCCCCCOC(=O)CC1(CCO)COC(=O)C1 (single isomer, unassigned) | 24.1 µM
4 | CCCCCCCCCCCCCCOC(=O)C[C@@]1(CO)COC(=O)C1 | 16.9 µM
5 | CCCCCCCCCCCCCC(=O)O[C@@H](CO)[C@@H]1CCC(=O)O1 | 1.07 µM
6 | CCCCCCCCCCCCCC(=O)O[C@@H](CO)[C@H]1CCC(=O)O1 | 28 µM
